Columns and labels:
MDA-MB-468 = assay: Immunofluorescent staining: centrosomes and chromosome segregation; format: cell-based, human; conditions: 3 μM
Experimental: Cells on coverslips placed on the bottom of 35 mm tissue culture plates or 6-well clustered dishes were treated for 12-24 hours with the CTR compounds to be tested. Subsequently, the cells were fixed with 100% methanol for 15 minutes and washed with 1×PBS three times. Cells were then “blocked” with 3% BSA or 1% (v/v) FBS plus 1×PBST (1×PBS buffer containing 0.1% (v/v) Triton X-100 or 0.2% Tween 20), and incubated overnight at 4° C. with primary antibodies, with gentle agitation. Unbound primary antibodies were washed off with PBST, and a secondary antibody was added for 1 hour in the dark. Secondary antibodies were conjugated to Alexa 488 or 568. DNA was counterstained with DRAQ5 or DAPI. Subsequently, coverslips were washed three times with 1×PBST for 10 minutes each, followed by mounting them onto slides with 90% glycerol in 1×PBS. Each slide was visualized with a Carl Zeiss 510 Meta laser scanning microscope or an Axioscope. Image analysis was done with an LSM image examiner equipped with the microscopes (Carl Zeiss, Toronto, ON, Canada).
The cancer-specific increase of mitotic cells in response to CTR-17 was correlated with the accumulation of cells with monopolar centrosomes and abnormal chromosome alignment/segregation (FIG. 11, Table 5). Cells were either sham-treated or treated with 3.0 μM CTR-17 for 12 hours or 24 hours, followed by analyses of cell cycle progression, centrosome abnormalities, and chromosome alignment/segregation. […] The mitotic index was determined by fluorescence microscopic analysis of at least 200 cells for each cell type, and data was expressed as percentage mean±S.E.M. of at least two independent experiments.

HeLa cells [1] = assay: EdU incorporation (DNA replication); format: cell-based; conditions: 3.0 μM for 24 hours; sham control 25.4%
Experimental: (§1) CTR-17 caused neither impediment of DNA replication nor DNA damage. […] The detection of EdU incorporated into DNA was carried out by fluorescence microscopy. […] Etoposide (50.0 μM) was used as a positive control.

HeLa cells [2] = assay: γ-H2AX immunostaining (DNA damage); format: cell-based; conditions: 3.0 μM
Experimental: as §1

ANBL6-BR = assay: Antiproliferation, bortezomib-resistant cells; format: cell-based; conditions: ANBL6-BR (bortezomib-resistant multiple myeloma)
Experimental: All of the cell lines used were purchased from ATCC and cultured in RPMI-1640 supplemented with 10% fetal bovine serum and antibiotics (100 units penicillin/100 μg/ml streptomycin), unless stated otherwise. 1845B5 and MCF-10A non-cancer breast cell lines were cultured in DME/F12 medium supplemented with 10% fetal bovine serum, antibiotics and growth factors. […] The human small cell lung carcinoma H69 cell line and its multidrug-resistant MRP1-overexpressing isogenic H69AR cell line were purchased from ATCC. […] H69 cells grow as large multi-cell aggregates, making it difficult to accurately count cell numbers. […] The IL-6 dependent bortezomib-resistant ANBL6-BR cell line was further supplemented with 1 ng/ml of IL-6. The MCF10AT1 and MCF10CA1a cell lines are isogenic to the MCF10A cell line, and obtained from Dr. Valerie Weaver at the Center for Bioengineering and Tissue Regeneration, UCSF, CA, USA. […] Cell growth (inhibition) was calculated by the following formula: % cells proliferation=[(AT-CT)/(ST-CT)]×100 wherein AT=absorbance of treated cells, CT=absorbance of negative control cells, and ST=absorbance of sham treated cells. […] The combinational index (CI) was calculated as described previously (Chou 2006). […] CI values were determined from four independent experiments.

NCI-60 cancer cell lines = assay: NCI-60 cancer panel SRB screening; format: cell-based; conditions: 10 μM, 48 hours
Experimental: Ten μM of CTR-20 was used to examine the drug's efficacy against the NCI-60 cancer cell lines including: six leukemia cell lines, nine non-small cell lung cancer cell lines, seven colorectal cancer cell lines, six CNS cancer cell lines, nine melanoma cell lines, seven ovarian cancer cell lines, seven renal cancer cell lines, two prostate cancer cell lines and six breast cancer cell lines. Screening method was carried out by a sulforhodamine B (SRB) colorimetric assay.

HeLa S3 cells = assay: Trypan blue exclusion assay; format: cell-based; conditions: 1 μM; 72 hours post-treatment
Experimental: Cell survival/death was determined by trypan blue exclusion assays.

Structure (SMILES) | ACS (abnormal chromosome segregation) (MDA-MB-468; 12 h post-treatment) | Monopolar centrosome (MDA-MB-468; 12 h post-treatment) | ACS (abnormal chromosome segregation) (MDA-MB-468; 24 h post-treatment) | Monopolar centrosome (MDA-MB-468; 24 h post-treatment) | EdU positive cells (HeLa cells [1]) [%] | DNA damage (γ-H2AX) (HeLa cells [2]) | IC50 (ANBL6-BR) [nM] | cell survival (range over cell lines) (NCI-60 cancer cell lines; nine melanomas) | cell survival (range over cell lines) (NCI-60 cancer cell lines; nine non-small cell lung cancer cell lines) [%] | cell survival (range over cell lines) (NCI-60 cancer cell lines; seven colorectal cancer cell lines) | cell survival (range over cell lines) (NCI-60 cancer cell lines; seven ovarian cancer cell lines) | cell survival (range over cell lines) (NCI-60 cancer cell lines; seven renal cancer cell lines) | cell survival (range over cell lines) (NCI-60 cancer cell lines; six breast cancer cell lines) | cell survival (range over cell lines) (NCI-60 cancer cell lines; six leukemia cell lines) | cell survival (range over cell lines) (NCI-60 cancer cell lines; two prostate cancer cell lines) | cell death (HeLa S3 cells) [%]
COc1ccccc1C(=O)/C=C/c1cc2ccccc2[nH]c1=O [CTR-17, (E)-3-(3-(2-Methoxyphenyl)-3-oxoprop-1-enyl)quinolin-2(1H)-one] | 44.7 ± 8.9% of total mitotic cells | 55.3 ± 8.9% of total mitotic cells | 24.0 ± 5.9% of total mitotic cells | 76.0 ± 5.9% of total mitotic cells | 22.0 | does not cause any notable DNA damage |  |  |  |  |  |  |  |  |  | 
COc1ccc2[nH]c(=O)c(/C=C/C(=O)c3ccccc3OC)cc2c1 [CTR-20, (E)-6-Methoxy-3-(3-(2-methoxyphenyl)-3-oxoprop-1-enyl) quinolin-2(1H)-one] |  |  |  |  |  |  | 760 ± 280 | −10.05 to +50.45% | −11.97 to 38.93 | +4.37 to +23.11% | +1.18 to +50.80% | −7.90 to +42.01% | −2.02 to +18.91% | −2.46 to +10.88% | +10.76 to +22.06% | ~70

From US20180344725A1, “QUINOLONE CHALCONE COMPOUNDS AND USES THEREOF” (priority 2015, published 2018)
